Measured values published in patent US5470852A, “Tetrahydroprotoberberine quaternary ammonium compounds useful in for treating arrhythmia” (priority 1991, dated 1995).
Entries after “also recorded” stand apart in the source; their conditions may differ.

How the values were obtained:
[1] = tested on: Langendorff's perfused rat hearts; assay: Ischemia/reperfusion-induced arrhythmias, I13 in perfusate, Langendorff's perfused rat hearts; assay type: cell-based
Description: FIG. 2. Influence of I13 in perfusate on the time course of reperfusion-induced arrhythmias in Langendorff's perfused rat hearts

hypertrophic rat heart = assay: Reperfusion-induced VF and VT in hypertrophic rat heart (L-thyroxine); assay type: in vivo
Procedure: 4. In the model of hypertrophic rat heart muscle disease caused by long term injections of L-thyroxine, high incidence of VF has been induced in vitro and in vivo when compared with the control after low perfusion-reperfusion or ischemia-reperfusion protocol. […] (shown in Tab 6)
Effect of I13 (100 mg/kg, ig administration at 1 hour before experiment)
on reperfusion-induced VF and VT in hypertrophic rat heart, a
myopathy induced by injecting L-thyroxin

rabbits [2] = assay: Electrically-induced ventricular fibrillation threshold (VFT) in rabbits; assay type: in vivo, rabbit; conditions: for VFT Before: baseline
[3] = tested on: Langendorff's perfused rat hearts; assay: Lasting antiarrhythmic action after po administration, hearts removed and mounted on Langendorff's apparatus; assay type: in vivo; parameters: ke: unit not given beside the values
Procedure: 1, 3 and 6 hours after the administration of 100 mg/kg of I13 by p.o. to rats, the hearts were removed and mounted onto Langendorff's apparatus. […] (see FIG. 4)
FIG. 4. Influence of po I13 and mexiletine on the time course of reperfusion-induced arrhythmias in Langendorff's perfused rat hearts

[4] = tested on: normal papillary muscles of guinea pig; assay: Action potential of normal papillary muscles of guinea pig; assay type: cell-based; conditions: for APA (action potential amplitude) / APD20 / APD50 / APD90 / ERP (effective refractory period) / RP (resting potential) / Vmax: n=7
Description: Effect of I13 on estimates of action potential of normal papillary

[5] = tested on: guinea pig papillary muscles; assay: Action potential of guinea pig papillary muscles under anoxia, high K+ and acidosis; assay type: cell-based
Description: Effect of I13 (μ mol/L) on estimates of action potential of guinea
papillary muscles under anoxia, high K^+ and acidosis

[6] = tested on: normal papillary muscles in rats; assay: Action potential in normal papillary muscles in rats; assay type: cell-based, rat; conditions: n=6, I13 concentration not given
Description: (§1) Effect of I13 (μ mol/L) on estimates of action potential induced in
(§2) normal and pathological papillary muscles in rats.

[7] = tested on: pathological papillary muscles in rats (hypertrophy); assay: Action potential in hypertrophic papillary muscles in rats (abdominal aorta occlusion); assay type: cell-based, rat
Description: as §1, §2

[8] = tested on: left ventricular activity in rabbits; assay: Monophasic action potential (MAP) recorded from left ventricle in rabbits; assay type: in vivo, rabbit
Description: The effectiveness of I13 in lengthening APD is confirmed by the influence on monophasic action potential (MAP) recorded from the left ventricular activity in rabbits.

rabbits [9] = assay: APD 24 hours after AMI in rabbits; assay type: in vivo, rabbit
Procedure: 24 hours after AMI, APD is markedly shortened.

[10] = tested on: various experimental arrhythmic models; assay: Overall antiarrhythmic, anti-VF and anti-ischemic activity (summary); assay type: in vivo
[11] = 100 mg/kg ig 1 hour before, n=10
[12] = anoxia, high K+ and acidosis, I13 concentration not given
[13] = hypertrophy, n=5, I13 concentration not given

## COc1ccc2c(c1OC)C[N+]1(Cc3ccc(Cl)cc3)CCc3cc4c(cc3C1C2)OCO4 (centres unmarked) [Compound I13, 7-(4-chlorobenzyl)-5,8,13,13a-tetrahydroberberine chloride]
[1]; 3 μmol/L
  protection against VT and VF induced by ischemia and reperfusion: effective protection against the VT and VF
[1]; 3 μmol/L (FIG. 2)
  ke: 0.030 min⁻¹
[1]; 10 μmol/L (FIG. 2)
  ke: 0.020 min⁻¹
Hypertrophic rat heart; [11]
  Duration of VF: 2.0 ± 3.0 min
  Duration of VT: 0.4 ± 0.8 min
  Incidence of VF: 30%
  Incidence of VT: 20%
Hypertrophic rat heart; p.o. 100 mg/kg one hour prior to ischemia
  inhibition of incidence of VF and VT: clearly inhibited the incidence of VF and VT
Rabbits [2]; intra-duodenal 4.5 mg/kg group
  VFT Before: 5.8 ± 0.3 volt
Rabbits [2]; intra-duodenal 15 mg/kg group
  VFT Before: 5.2 ± 0.9 volt
Rabbits [2]; iv 1.5 mg/kg group
  VFT Before: 5.2 ± 0.6 volt
Rabbits [2]; i.v.
  potency in elevating VFT relative to lidocaine: ten times more potent than lidocaine
Rabbits [2]; id 4.5 mg/kg
  AUC (area under curve, VFT effect): 48.1
Rabbits [2]; id 15 mg/kg
  AUC (area under curve, VFT effect): 83.7
Rabbits [2]; intra-duodenal 4.5 mg/kg
  VFT After: 8.9 ± 0.4 volt
  ΔVFT: 3.1 ± 0.4 volt
  ΔVFT %: 53.0 ± 7.6%
Rabbits [2]; intra-duodenal 15 mg/kg
  VFT After: 9.9 ± 2.2 volt
  ΔVFT: 4.8 ± 1.5 volt
  ΔVFT %: 92.1 ± 19.5%
Rabbits [2]; iv 1.5 mg/kg
  AUC (area under curve, VFT effect): 11.1
  VFT After: 8.1 ± 1.1 volt
  ΔVFT: 2.8 ± 0.8 volt
  ΔVFT %: 54.4 ± 16.9%
Rabbits [2]; iv 4.5 mg/kg
  AUC (area under curve, VFT effect): 14.4
  VFT After: 8.8 ± 1.1 volt
  ΔVFT: 3.6 ± 0.6 volt
  ΔVFT %: 72.2 ± 9.7%
[3]; 30 mg/kg po at 1 hr before experiment (FIG. 4)
  ke: 0.144
[3]; 100 mg/kg po at 1 hr before experiment (FIG. 4)
  ke: 0.556
[3]; 100 mg/kg po at 3 hr before experiment (FIG. 4)
  ke: 0.056
[3]; 100 mg/kg po at 6 hr before experiment (FIG. 4)
  ke: 0.037
[3]; 1, 3 and 6 hours after p.o. 100 mg/kg, 30 min washing
  antiarrhythmic effects after washing isolated hearts: persisted even after 30 minutes of washing
[4]
  influence on APA: no influence
  influence on RP: no influence
[4]; 0.3 μmol/L
  influence on APD50 (printed ADP50): able to lengthen ADP50
  APA (action potential amplitude): 125 ± 3 mv
  APD20: 88 ± 13 ms
  APD50: 176 ± 29 ms
  APD90: 201 ± 30 ms
  ERP (effective refractory period): 201 ± 28 ms
  RP (resting potential): 91 ± 1 mv
  Vmax: 260 ± 60 v/s
[4]; 1 μmol/L
  APA (action potential amplitude): 123 ± 3 mv
  APD20: 86 ± 10 ms
  APD50: 181 ± 27 ms
  APD90: 208 ± 29 ms
  ERP (effective refractory period): 207 ± 27 ms
  RP (resting potential): 90 ± 1 mv
  Vmax: 250 ± 70 v/s
[4]; 3 μmol/L
  APA (action potential amplitude): 123 ± 3 mv
  APD20: 84 ± 8 ms
  APD50: 182 ± 23 ms
  APD90: 211 ± 26 ms
  ERP (effective refractory period): 213 ± 18 ms
  RP (resting potential): 89 ± 3 mv
  Vmax: 217 ± 60 v/s
[4]; 10 μmol/L
  APA (action potential amplitude): 122 ± 3 mv
  APD20: 80 ± 5 ms
  APD50: 161 ± 28 ms
  APD90: 206 ± 26 ms
  ERP (effective refractory period): 211 ± 23 ms
  RP (resting potential): 89 ± 1 mv
  Vmax: 180 ± 60 v/s
[4]; 30 μmol/L
  APA (action potential amplitude): 116 ± 5 mv
  APD20: 58 ± 11 ms
  APD50: 128 ± 19 ms
  APD90: 158 ± 22 ms
  ERP (effective refractory period): 166 ± 24 ms
  RP (resting potential): 87 ± 3 mv
  Vmax: 140 ± 50 v/s
[4]; 1 to 3 μmol/L
  influence on APD50 and APD90 (printed ADP50, ADP90): prolonged
[4]; Cavia porcellus, 3 μmol/L, isolated papillary muscles of guinea pigs, read-out: inhibition of Vmax
  inhibition at 3 µM: 20%
[4]; electrophysiological studies
  antiarrhythmic class properties: properties of Ia, Ib and III
[4]; low vs high concentrations
  two-phase effect on APD: lengthened at low concentrations and shortened at high concentrations
[5]
  Vmax under anoxia, high K+ and acidosis: lowered
[5]; anoxia, high K+ and acidosis, I13 (μmol/L, concentration not given), n=8
  RP: 85 ± 2 mv
[5]; [12]
  APA: 116 ± 2 mv
  APD20: 78 ± 13 ms
  APD50: 156 ± 20 ms
  APD90: 170 ± 21 ms
  ERP: 186 ± 19 ms
  Vmax: 190 ± 40 v/s
[6]
  APA: 108 ± 9 mv
  APD20: 5 ± 1 ms
  APD50: 15 ± 4 ms
  APD90: 44 ± 9 ms
  ERP: 43 ± 8 ms
  RP: 83 ± 4 mv
  Vmax: 200 ± 50 v/s
[7]
  influence on APD in hypertrophic myocardium: could not be further exaggerated; also recorded: no action on hypertrophic myocardium
[7]; abdominal aorta occlusion, rats
  Vmax in left ventricular hypertrophy: completely inhibited
[7]; [13]
  APA: 104 ± 4 mv
  APD20: 8 ± 2 ms
  APD50: 20 ± 4 ms
  APD90: 45 ± 5 ms
  ERP: 45 ± 9 ms
  RP: 81 ± 3 mv
  Vmax: 210 ± 40 v/s
[8]
  lengthening of APD (MAP): confirmed
Rabbits [9]
  effect on APD shortening after AMI: could be cancelled
[10]; in vivo
  inhibition of ventricular fibrillation and myocardial ischemia: inhibits ventricular fibrillation and myocardial ischemia
  protection against arrhythmia, VF and myocardial ischemic injury: advanced protection against arrhythmia, ventricular fibrillation (VF) and myocardial ischemic injury
[10]; various experimental arrhythmic models
  antiarrhythmic effects: marked antiarrhythmic effects
